From ChEMBL document CHEMBL5346887, “Design and evaluation of dibenzoazepine-tetrahydroisoquinoline hybrids as potential P-glycoprotein inhibitors against multidrug resistant K562/A02 cells” (Eur J Med Chem, 2023)
The source made the active and inactive calls. No cut-off for these calls is given here.

Columns and labels:
[1] = system: K562/A02; assay: Cytotoxicity against human K562/A02 cells assessed as inhibition of cell growth incubated for 72 hrs by CCK-8 assay; type: functional, cell-based; settings: K562/A02, 72 h
[2] = system: K562/A02; assay: Reversal fold, ratio of ADR IC50 to test compound IC50 for reversal of multi-drug resistance in human K562/A02 cells; type: functional
[3] = system: K562/A02; assay: Reversal fold, ratio of ADR IC50 to test compound IC50 for reversal of multi-drug resistance in human K562/A02 cells at 0.4 uM; type: functional
[4] = system: K562/A02; assay: Effect on P-gp expression in human K562/A02 cells at 0.5 to 8 uM measured after 24 hrs by Western blot analysis; type: functional, cell-based; settings: dose 0.5-8 µM
[5] = target: ATP-dependent translocase ABCB1 (Homo sapiens, UniProt P08183); assay: Binding affinity to p-gp in human K562/A02 cells assessed as increase in thermal stabilization at 50 uM incubated for 1 hr by CETSA analysis; type: cell-based; settings: k562/a02, 1 h
[6] = system: K562/A02; assay: Reversal of multi-drug resistance in human K562/A02 cells increase in intracellular Rh123 level incubated for 30 mins by flow cytometry analysis; type: functional, cell-based; settings: dose 0.5-8 µM
[7] = system: K562/A02; assay: Antitumor activity against human K562/A02 cells xenografted in BALB/c nude mouse assessed as reduction in tumor weight at 20 mg/kg, ip measured upto 14 days in presence of ADR by vernier caliper analysis; type: functional, organism-based; settings: time <= 14.0 day
[8] = target: Cytochrome P450 3A4 (Homo sapiens, UniProt P08684); assay: Inhibition of CYP3A4 (unknown origin) using luciferin-IPA as substrate preincubated for 1 hr followed by substrate addition and measured after 1 hr by luminometer assay; type: ADME
[9] = system: K562/A02; assay: Antitumor activity against human K562/A02 cells xenografted in BALB/c nude mouse assessed as reduction in tumor volume at 20 mg/kg, ip measured upto 14 days by vernier caliper analysis; type: functional; settings: time <= 14 day
[10] = system: K562/A02; assay: Reversal of adriamycin resistance in human K562/A02 cells incubated for 48 hrs; type: functional, cell-based; settings: K562/A02, 48 h
[11] = system: K562/A02; assay: Antitumor activity against human K562/A02 cells xenografted in BALB/c nude mouse assessed as reduction in tumor volume at 20 mg/kg, ip measured upto 14 days in presence of ADR by vernier caliper analysis; type: functional; settings: time <= 14 day
[12] = system: K562; assay: Reversal of multi-drug resistance in human K562 cells increase in intracellular Rh123 level at 0.5 to 8 uM incubated for 30 mins by flow cytometry analysis; type: functional, cell-based; settings: dose 0.5-8 µM
[13] = system: K562/A02; assay: Antitumor activity against human K562/A02 cells xenografted in BALB/c nude mouse assessed as reduction in tumor volume at 2 mg/kg, ip measured upto 14 days by vernier caliper analysis; type: functional; settings: time <= 14 day
[14] = system: K562; assay: cells; settings: Homo sapiens, K562, 72 h
Description: Cytotoxicity against human K562 cells assessed as inhibition of cell growth incubated for 72 hrs by CCK-8 assay

Sequence of ATP-dependent translocase ABCB1 (P08183 whole entry): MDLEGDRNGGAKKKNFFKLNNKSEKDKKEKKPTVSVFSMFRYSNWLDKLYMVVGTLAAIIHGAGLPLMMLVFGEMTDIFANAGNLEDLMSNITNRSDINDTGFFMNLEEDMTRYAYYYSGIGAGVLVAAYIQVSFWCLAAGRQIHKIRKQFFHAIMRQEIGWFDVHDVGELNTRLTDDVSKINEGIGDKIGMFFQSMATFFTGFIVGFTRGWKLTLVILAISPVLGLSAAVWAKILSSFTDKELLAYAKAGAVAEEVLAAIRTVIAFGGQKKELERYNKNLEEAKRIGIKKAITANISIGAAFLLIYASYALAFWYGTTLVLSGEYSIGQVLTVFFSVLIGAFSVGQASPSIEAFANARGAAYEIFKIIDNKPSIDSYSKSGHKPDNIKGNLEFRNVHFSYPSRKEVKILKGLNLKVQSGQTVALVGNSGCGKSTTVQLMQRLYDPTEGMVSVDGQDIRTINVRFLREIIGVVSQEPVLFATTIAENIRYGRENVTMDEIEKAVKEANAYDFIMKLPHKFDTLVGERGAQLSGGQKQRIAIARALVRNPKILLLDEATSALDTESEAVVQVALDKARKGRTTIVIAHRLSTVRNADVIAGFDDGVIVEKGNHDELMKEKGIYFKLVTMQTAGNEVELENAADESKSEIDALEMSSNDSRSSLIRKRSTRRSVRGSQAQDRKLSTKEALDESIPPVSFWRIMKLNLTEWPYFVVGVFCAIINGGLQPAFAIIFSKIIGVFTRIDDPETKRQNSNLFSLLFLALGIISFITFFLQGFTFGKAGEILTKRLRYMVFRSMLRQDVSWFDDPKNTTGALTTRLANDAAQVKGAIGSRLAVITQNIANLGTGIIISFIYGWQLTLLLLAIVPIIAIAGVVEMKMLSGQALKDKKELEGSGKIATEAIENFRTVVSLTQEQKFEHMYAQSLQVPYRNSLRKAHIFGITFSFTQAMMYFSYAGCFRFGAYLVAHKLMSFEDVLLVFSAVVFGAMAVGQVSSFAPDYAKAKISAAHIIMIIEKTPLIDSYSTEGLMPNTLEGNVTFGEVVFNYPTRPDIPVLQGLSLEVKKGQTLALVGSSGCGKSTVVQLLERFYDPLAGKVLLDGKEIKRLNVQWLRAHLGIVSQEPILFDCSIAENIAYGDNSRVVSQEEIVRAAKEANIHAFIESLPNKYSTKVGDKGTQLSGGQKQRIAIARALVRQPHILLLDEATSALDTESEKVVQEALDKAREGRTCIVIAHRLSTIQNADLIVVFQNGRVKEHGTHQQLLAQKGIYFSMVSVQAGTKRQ
Sequence of Cytochrome P450 3A4 (P08684 whole entry): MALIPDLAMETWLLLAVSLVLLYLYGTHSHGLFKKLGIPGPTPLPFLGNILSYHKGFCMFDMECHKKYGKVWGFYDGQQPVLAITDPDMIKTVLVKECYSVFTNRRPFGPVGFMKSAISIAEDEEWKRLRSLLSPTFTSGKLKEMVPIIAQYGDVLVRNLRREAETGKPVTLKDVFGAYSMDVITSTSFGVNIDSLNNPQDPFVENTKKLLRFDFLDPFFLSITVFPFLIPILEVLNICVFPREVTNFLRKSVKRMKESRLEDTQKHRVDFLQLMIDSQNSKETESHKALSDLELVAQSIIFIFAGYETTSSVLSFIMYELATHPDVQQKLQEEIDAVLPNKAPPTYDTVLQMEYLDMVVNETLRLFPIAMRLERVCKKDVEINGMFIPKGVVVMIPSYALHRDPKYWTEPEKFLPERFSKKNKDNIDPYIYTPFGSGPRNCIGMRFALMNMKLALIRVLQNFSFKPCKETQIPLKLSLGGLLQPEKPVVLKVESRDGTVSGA

SMILES | IC50 [1] | Ratio IC50 [2] | Ratio IC50 [3] | also measured
COc1cc2c(c3c1OCO3)-c1c(cc(OC)c3c1OCO3)CN(c1ccc(CCN3CCOCC3)cc1)C2 | 6.57 µM | 16.7 | – | –
COc1cc2c(c3c1OCO3)-c1c(cc(OC)c3c1OCO3)CN(c1ccc(CCN3CCCCC3)cc1)C2 | 3.21 µM | – | 12.52 | –
COc1ccc2c(c1)CCN(CCc1ccc(N3Cc4cc(OC)c5c(c4-c4c(cc(OC)c6c4OCO6)C3)OCO5)cc1)C2 | > 100 µM | 8.61 | – | –
COc1cc2c(c3c1OCO3)-c1c(cc(OC)c3c1OCO3)CN(c1ccc(CN3CCCCC3)cc1)C2 | 19.3 µM | 113.14 | 21.82 | –
COc1cc2c(cc1OC)CN(CCc1ccc(N3Cc4cc(OC)c5c(c4-c4c(cc(OC)c6c4OCO6)C3)OCO5)cc1)CC2 | 95.4 µM | 93.17 | 93.17 | Activity [4]: inactive; Activity [5]: Active; Activity [6]: Dose-Dependent Effect; Activity [7]: Active; IC50 [8]: 2.61 µM; Activity [9]: 525.75 mm3; EC50 [10]: 0.0487 µM; Activity [11]: 158.27 mm3; Activity [12]: Active
COc1cc2c(c3c1OCO3)-c1c(cc(OC)c3c1OCO3)CN(c1ccc(CCN3CCNCC3)cc1)C2 | 4.63 µM | – | 14.23 | –
COc1cc2c(cc1OC)CN(CCN1Cc3cc(OC)c4c(c3-c3c(cc(OC)c5c3OCO5)C1)OCO4)CC2 | 7.78 µM | 4.29 | – | –
COc1ccc2c(c1)CCN(CCN1Cc3cc(OC)c4c(c3-c3c(cc(OC)c5c3OCO5)C1)OCO4)C2 | 5.1 µM | – | 4.87 | –
COc1ccc(C(=O)Nc2ccccc2C(=O)Nc2ccc(CCN3CCc4cc(OC)c(OC)cc4C3)cc2)cc1OC | 9.08 µM | 81.9 | – | EC50 [10]: 0.0303 µM
COc1ccc2c(c1)CCN(CCCN1Cc3cc(OC)c4c(c3-c3c(cc(OC)c5c3OCO5)C1)OCO4)C2 | 5.31 µM | – | 1.67 | –
COc1ccc2c(c1)CCN(CCCCCCN1Cc3cc(OC)c4c(c3-c3c(cc(OC)c5c3OCO5)C1)OCO4)C2 | > 100 µM | 4.23 | – | –
COc1cc2c(cc1OC)CN(CCCCCCN1Cc3cc(OC)c4c(c3-c3c(cc(OC)c5c3OCO5)C1)OCO4)CC2 | 2.04 µM | – | 8.24 | –
COc1cc2c(cc1OC)CN(CCCN1Cc3cc(OC)c4c(c3-c3c(cc(OC)c5c3OCO5)C1)OCO4)CC2 | 16.6 µM | 2.01 | – | –
COc1cc2c(cc1OC)CN(Cc1ccc(N3Cc4cc(OC)c5c(c4-c4c(cc(OC)c6c4OCO6)C3)OCO5)cc1)CC2 | 13.6 µM | 374.09 | 46.82 | –
COc1cccc2c1C(=O)c1c(O)c3c(c(O)c1C2=O)C[C@@](O)(C(=O)CO)C[C@@H]3O[C@H]1C[C@H](N)[C@H](O)[C@H](C)O1.Cl [DOXORUBICIN HYDROCHLORIDE] | 2.4 µM | – | – | Activity [13]: 526.45 mm3; IC50 [14]: 0.001 µM
COc1cc2c(cc1OC)CN(CCc1ccccc1N1Cc3cc(OC)c4c(c3-c3c(cc(OC)c5c3OCO5)C1)OCO4)CC2 | > 100 µM | 0.85 | – | –
COc1cc2c(c3c1OCO3)-c1c(cc(OC)c3c1OCO3)CN(CCc1ccc3c(c1)OCO3)C2 | – | 20.58 | 12.78 | EC50 [10]: 0.122 µM
